Assay results reported in patent publication US10556865B2, “Synergistic herbicidal composition containing certain pyridine or pyrimidine carboxylic acids and certain cereal and rice herbicides” (Dow AgroSciences, LLC, priority 2007, dated 2020).

Tests used:
Format in all cases: in vivo
[1] = tested on: Cyperus iria L. (CYPIR); test: Postemergence herbicidal mixtures for weed control in direct seeded rice (greenhouse, visual % injury)
[2] = tested on: Ipomoea hederacea (L.) JACQ. (IPOHE); test: Postemergence herbicidal mixtures for weed control in direct seeded rice (greenhouse, visual % injury after 3 weeks)
[3] = tested on: Cyperus esculentus L. (CYPES); test: Postemergence herbicidal mixtures for weed control in direct seeded rice (greenhouse, visual % injury)
[4] = tested on: bird's-eye speedwell (Veronica persica L; VERPE); test: Postemergence herbicidal activity of mixtures in cereal crops (greenhouse, visual injury)
Experimental: (§1) The plants were grown for 7-36 days in a greenhouse with an approximate 14 hour photoperiod which was maintained at about 18° C. during the day and 17° C. during the night. Nutrients and water were added on a regular basis and supplemental lighting was provided with overhead metal halide 1000-Watt lamps as necessary. The plants were employed for testing when they reached the second or third true leaf stage.
(§2) Treatments consisted of compound (as listed in Tables 1 through 64) and a second cereal herbicide alone and in combination. […] Control plants were sprayed in the same manner with the solvent blank.
(§3) The treated plants and control plants were placed in a greenhouse as described above and watered by sub-irrigation to prevent wash-off of the test compounds. After 20-22 days, the condition of the test plants as compared with that of the control plants was determined visually and scored on a scale of 0 to 100 percent where 0 corresponds to no injury and 100 corresponds to complete kill.
(§4) The following equation was used to calculate the expected activity of mixtures containing two active ingredients, A and B: Expected=A+B−(A×B/100)

[5] = tested on: scented mayweed (Matricaria chamomila L; MATCH); test: as above; details: Matricaria, post-emergence, read-out: MATCH Ob
Experimental: as §1, §2, §3, §4

[6] = tested on: black mustard (Brassica nigra L; BRSNI); test: as above; details: Brassica, post-emergence, 35 g/ha alone; read-out: BRSNI Ob
Experimental: (§5) Seeds of the desired test plant species were planted in Sun Gro MetroMix® 306 planting mixture, which typically has a pH of 6.0 to 6.8 and an organic matter content of about 30 percent, in plastic pots with a surface area of 103.2 square centimeters (cm^2). When required to ensure good germination and healthy plants, a fungicide treatment and/or other chemical or physical treatment was applied. The plants were grown for 7-36 days in a greenhouse with an approximate 14 hour photoperiod which was maintained at about 18° C. during the day and 17° C. during the night. Nutrients and water were added on a regular basis and supplemental lighting was provided with overhead metal halide 1000-Watt lamps as necessary. The plants were employed for testing when they reached the second or third true leaf stage.
Treatments consisted of compound (as listed in Tables 1 through 64) and a second cereal herbicide alone and in combination. Weighed amounts of esters (methyl) or salts (TEA [triethylammonium], K [potassium]) of 4-amino-3-chloro -6-(4-chloro-2-fluoro-3-methoxyphenyl)pyridine-2-carboxylic acid (Compound A) or of 6-amino-5-chloro-2-(4-chloro-2-fluoro-3-methoxyphenyl)pyrimidine-4-carboxylic acid (Compound B), were placed in 25 milliliter (mL) glass vials and dissolved in a volume of 97:3 v/v acetone/DMSO to obtain 4.5 milligrams (mg) active ingredient (ai)/mL stock solutions. […] The concentrated stock solutions were diluted to 1.5 mg ai/mL with the addition of 2 volumes of an aqueous mixture containing acetone, water, isopropyl alcohol, DMSO, Agri-dex crop oil concentrate, and Triton® X-77 surfactant in a 64.7:26.0:6.7:2.0:0.7:0.01 v/v ratio. A dilution solution was prepared by mixing 1 volume of 97:3 v/v acetone/DMSO and 2 volumes of an aqueous mixture containing acetone, water, isopropyl alcohol, DMSO, Agri-dex crop oil concentrate, and Triton® X-77 surfactant in a 64.7:26.0:6.7:2.0:0.7:0.01 v/v ratio. Compound requirements are based upon a 12 mL application volume at a rate of 187 liters per hectare (L/ha). Spray solutions of the second cereal herbicide and experimental compound mixtures were prepared by adding the stock solutions to the appropriate amount of dilution solution to form 12 mL spray solution with active ingredients in two- and three-way combinations. Formulated compounds were applied to the plant material with an overhead Mandel track sprayer equipped with 8002E nozzles calibrated to deliver 187 L/ha over an application area of 0.503 square meters (m^2) at a spray height of 18 inches (43 cm) above average plant canopy. Control plants were sprayed in the same manner with the solvent blank.
as §3
(§6) Colby's equation was used to determine the herbicidal effects expected from the mixtures (Colby, S. R. 1967. Calculation of the synergistic and antagonistic response of herbicide combinations. Weeds 15:20-22.).
as §4

[7] = tested on: wild pansy (Viola tricolor L; VIOTR); test: as above; details: Viola tricolor, post-emergence, 31.25 g/ha alone; read-out: VIOTR Ob
Experimental: as §1, §2, §3, §4

[8] = tested on: Echinochloa species (ECHSS); test: Herbicidal mixtures for weed control in transplanted paddy rice (in-water application, visual % injury after 3 weeks); details: for % Injury ECHOR Ob: ECHOR = Echinocloa oryzoides
Experimental: Weed seeds or nutlets of the desired test plant species were planted in puddled soil (mud) prepared by mixing a non-sterilized mineral soil (28 percent silt, 18 percent clay, and 54 percent sand, with a pH of about 7.3 to 7.8 and an organic matter content of about 1.0 percent) and water at a ratio of 100 kilograms (kg) of soil to 19 L of water. The prepared mud was dispensed in 250 mL aliquots into 480 mL non-perforated plastic pots with a surface area of 91.6 square centimeters leaving a headspace of 3 centimeters in each pot. Rice seeds were planted in Sun Gro MetroMix® 306 planting mixture, which typically has a pH of 6.0 to 6.8 and an organic matter content of about 30 percent, in plastic plug trays. Seedlings at the second or third leaf stage of growth were transplanted into 650 mL of mud contained in 960 mL non-perforated plastic pots with a surface area of 91.6 cm^2 4 days prior to herbicide application. The paddy was created by filling the 3 centimeter headspace of the pots with water. When required to ensure good germination and healthy plants, a fungicide treatment and/or other chemical or physical treatment was applied. The plants were grown for 4-14 days in a greenhouse with an approximate 14 hr photoperiod which was maintained at about 29° C. during the day and 26° C. during the night. Nutrients were added as Osmocote (17:6:10, N:P:K+minor nutrients) at 2 g per cup. Water was added on a regular basis to maintain the paddy flood, and supplemental lighting was provided with overhead metal halide 1000-Watt lamps as necessary. The plants were employed for testing when they reached the second or third true leaf stage.
Treatments consisted of esters or salts of compound A, compound C, or compound D and various herbicidal components alone and in combination. For technical grade compounds, a weighed amount, determined by the highest rate to be tested, was placed in an individual 120 mL glass vial and was dissolved in 20 mL of acetone to obtain concentrated stock solutions. […] The concentrated stock solutions obtained were diluted with 20 mL of an aqueous mixture containing 2.5% Agri-dex crop oil concentrate (v/v). For formulated compounds, a measured amount, determined by the highest rate to be tested, was placed in an individual 120 mL glass vial and was dissolved in 20 mL of 2.5% (v/v) Agri-dex crop oil concentrate to obtain concentrated stock solutions. The concentrated stock solutions obtained were diluted with 20 mL of acetone. Applications were made by injecting an appropriate amount of the stock solution into the aqueous layer of the paddy. Control plants were treated in the same manner with the solvent blank. All treated plant material received the same concentration of acetone and crop oil concentrate.
Forms of compounds A, C, and D were applied on an acid equivalent basis. Other herbicidal components were applied on an active ingredient basis and included acetolactate synthase (ALS)-inhibiting herbicides penoxsulam (triazolopyrimidine chemical class) applied as Grasp SC, […] (sulfonylurea chemical class) applied as Sirius G, and bensulfuron-methyl (sulfonylurea chemical class) applied as Londax; acetyl CoA carboxylase (ACCase) inhibiting herbicides cyhalofop-butyl applied as Clincher G and fenoxaprop-p-ethyl applied as Ricestar HT; auxinic herbicide quinclorac applied as Facet 75 DF; phytoene desaturase inhibiting herbicide norflurazon; and p-hydroxyphenylpyruvate dioxygenase (HPPD) inhibiting herbicide sulcotrione applied as Mikado.
The treated plants and control plants were placed in a greenhouse as described above and water was added as needed to maintain a paddy flood. After 3 weeks the condition of the test plants as compared with that of the untreated plants was determined visually and scored on a scale of 0 to 100 percent where 0 corresponds to no injury and 100 corresponds to complete kill.

[9] = tested on: annual ryegrass (Lolium multiflorum L; LOLMG); test: Postemergence herbicidal activity of mixtures in cereal crops (greenhouse, visual injury); details: 50 g/ha, Table 22
Experimental: as §5, with “When required to ensure good germination and healthy plants, a fungicide treatment and/or other chemical or physical treatment was applied.” left out
(§7) Treatments consisted of compound (as listed in Tables 1 through 64) and a second cereal herbicide alone and in combination. […] The concentrated stock solutions were diluted to 1.5 mg ai/mL with the addition of 2 volumes of an aqueous mixture containing acetone, water, isopropyl alcohol, DMSO, Agri-dex crop oil concentrate, and Triton® X-77 surfactant in a 64.7:26.0:6.7:2.0:0.7:0.01 v/v ratio. A dilution solution was prepared by mixing 1 volume of 97:3 v/v acetone/DMSO and 2 volumes of an aqueous mixture containing acetone, water, isopropyl alcohol, DMSO, Agri-dex crop oil concentrate, and Triton® X-77 surfactant in a 64.7:26.0:6.7:2.0:0.7:0.01 v/v ratio. Compound requirements are based upon a 12 mL application volume at a rate of 187 liters per hectare (L/ha). […] Formulated compounds were applied to the plant material with an overhead Mandel track sprayer equipped with 8002E nozzles calibrated to deliver 187 L/ha over an application area of 0.503 square meters (m^2) at a spray height of 18 inches […] above average plant canopy. Control plants were sprayed in the same manner with the solvent blank.
as §3, §6, §4

[10] = tested on: windgrass (Apera spica-venti L; APESV); test: as above; details: Apera spica-venti, post-emergence, read-out: APESV Ob
Experimental: as §5, with “When required to ensure good germination and healthy plants, a fungicide treatment and/or other chemical or physical treatment was applied.” left out
as §7, §3, §6, §4

[11] = tested on: littleseed Canarygrass (Phalaris minor L; PHAMI); test: as above
Experimental: as §5, with “When required to ensure good germination and healthy plants, a fungicide treatment and/or other chemical or physical treatment was applied.” left out
as §7, §3, §6, §4

[12] = tested on: blackgrass (Alopecurus myosuroides L; ALOMY); test: Postemergence herbicidal activity of mixtures in cereal crops (greenhouse, visual injury 0-100 percent after 20-22 days)
Experimental: as §5, with “When required to ensure good germination and healthy plants, a fungicide treatment and/or other chemical or physical treatment was applied.” left out
as §7, §3, §6, §4

## COc1cc(OC)nc(Oc2cccc(Oc3nc(OC)cc(OC)n3)c2C(=O)O)n1 [Bispyribac-sodium]
[1]; alone 7 g/ha
  % Injury CYPIR Ob: 40%
[1]; alone 14 g/ha
  % Injury CYPIR Ob: 90%
[1]; alone 28 g/ha
  % Injury CYPIR Ob: 95%
[2]; alone 7 g/ha
  % Injury IPOHE Ob: 10%
[2]; alone 28 g/ha
  % Injury IPOHE Ob: 60%
[3]; alone 14 g/ha
  % Injury CYPES Ob: 0%
[3]; alone 28 g/ha
  % Injury CYPES Ob: 50%

## COc1nc(C)nc(NC(=O)NS(=O)(=O)c2ccccc2Cl)n1 [Chlorsulfuron, 2-chloro-N-[[(4-methoxy-6-methyl-1,3,5-triazin-2-yl)amino]carbonyl]benzenesulfonamide, reference compound]
[4]; 2.2 g/ha, Table 28
  VERPE Ob: 5%

## CCOc1c(Cl)ccc(-c2cc(N)c(Cl)c(C(=O)OC)n2)c1F [Compound D Methyl]
[1]; alone 8.75 g/ha
  % Injury CYPIR Ob: 50%
[1]; alone 35 g/ha
  % Injury CYPIR Ob: 80%

## COc1c(Cl)ccc(Cl)c1C(=O)O [Dicamba]
[5]; 35 g/ha alone
  pest or weed control at 35 g/ha: 30%
[4]; Veronica persica, post-emergence, 35 g/ha alone, read-out: VERPE Ob
  pest or weed control at 35 g/ha: 10%
[6]
  pest or weed control at 35 g/ha: 50%

## CC(Oc1ccc(Cl)cc1Cl)C(=O)O (stereo not drawn) [Dichlorprop]
[5]; 140 g/ha alone
  pest or weed control at 140 g/ha: 10%
[4]; Veronica persica, post-emergence, 140 g/ha alone, read-out: VERPE Ob
  pest or weed control at 140 g/ha: 20%

## CCC(C)(CC)c1cc(NC(=O)c2c(OC)cccc2OC)on1 [Isoxaben]
[7]
  pest or weed control at 31.25 g/ha: 3%
[4]; Veronica persica, post-emergence, 31.25 g/ha alone, read-out: VERPE Ob
  pest or weed control at 31.25 g/ha: 0%

## CCOC(=O)c1cnn(C)c1S(=O)(=O)NC(=O)Nc1nc(OC)cc(OC)n1 [Pyrazosulfuron-ethyl]
[8]; ECHCG, 5.25 g/ha alone
  % Injury Ob: 20%

## CS(=O)(=O)c1ccc(C(=O)C2C(=O)CCCC2=O)c(Cl)c1 [Sulcotrione]
[8]; Sulcotrione 70 g/ha alone (Compound A Methyl half)
  % Injury ECHOR Ob: 10%
[8]; Sulcotrione 70 g/ha alone (Compound A TEA half)
  % Injury ECHOR Ob: 10%

## CCON=C(CC)C1=C(O)CC(c2c(C)cc(C)cc2C)CC1=O (stereo not drawn) [Tralkoxydim, 2-[1-(ethoxyimino)propyl]-3-hydroxy-5-(2,4,6-trimethylphenyl)-2-cyclohexen-1-one, reference compound]
[9]
  LOLMG Ob: 50%
[10]
  pest or weed control at 50 g/ha: 75%
[11]; 25 g/ha, Table 6
  PHAMI Ob: 35%
[11]; 50 g/ha, Table 6
  PHAMI Ob: 45%
[11]; 50 g/ha, Table 22
  PHAMI Ob: 30%
[12]; 25 g/ha, Table 6
  ALOMY Ob: 78%
[12]; 50 g/ha, Table 6
  ALOMY Ob: 70%
[12]; 50 g/ha, Table 22
  ALOMY Ob: 70%

## CCN(CC)CC.O=C(O)COc1nc(Cl)c(Cl)cc1Cl [Triclopyr-TEA]
[3]; alone 140 g/ha
  % Injury CYPES Ob: 0%
[3]; alone 280 g/ha
  % Injury CYPES Ob: 0%
